One assay concerns TMBP cells. The assay can be described thus: In vitro activation of TMBP cells by MBP, cytokine mRNA by qPCR. It counts as cell-based, rat. On the procedure: Myelin basic protein (MBP)-reactive CD4^+ T cells retrovirally transduced to express enhanced GFP (TMBP cells) were established as previously reported. In brief, 6–8 week old female Lewis rats were immunized subcutaneously with 150 μl of emulsion consisting of equal parts of MBP (stock concentration: 1 mg/ml) and complete Freund's adjuvant containing heat-inactivated Mycobacterium tuberculosis extract (Difco; stock concentration: 2 mg/ml). Draining lymph nodes were harvested and passed through a cell strainer (40 μm) 9–10 days after immunization. The cell suspension was co-cultured with GP + E86 packaging cell lines producing replication-deficient retroviruses in the presence of 10 μg/ml MBP. Murine IL-2 was added to the culture for T cell expansion from day 2–4 after stimulation. The cell lines underwent 3–4 cycles of stimulation before being used for in vitro and in vivo experiments. […] Upon stimulation, they produced interferon-γ and IL-17.
In vitro activation assays were performed in 96-well plates. […]. TMBP cell activation on mRNA level was determined using qPCR and on surface protein level using surface marker staining and subsequent flow cytometry analysis.
Total RNA was isolated using the standard TRIzol method. cDNA was synthesized using the RevertAid First Strand cDNA Synthesis Kit (Thermo Fisher Scientific). Quantitative PCR (qPCR) was performed using the StepOnePlus™ Real-Time PCR System (Applied Biosystems), as previously described [[23], [24], [25]]. Rat TMBP cell data were obtained from three to four independent duplicate measurements. β-actin served as housekeeping gene. Human PBMC data were obtained from two independent healthy donors and duplicate measurements (representative data of one donor are shown). HPRT served as housekeeping gene. For all probes (TaqMan), a combination of 5′-FAM and 3′-TAMRA quencher was used as described.

In the next assay the test system is SOCE in H1299 cells. The assay can be described thus: SOCE inhibition, Ca2+ free/Ca2+ re-addition protocol in H1299 cells. It counts as cell-based, human. As to conditions: 10 μM. On the procedure: Jurkat T-lymphocytes were cultured in RPMI 1640 medium containing 25 mM HEPES and GlutaMAX-1 (Gibco, Life Technologies), supplemented with 7.5% (v/v) newborn calf serum (NCS) (Biochrom, Merck Millipore), 100 U/ml penicillin and streptomycin (standard JMP medium). Cell density was kept between 0.3 and 1.2 ∗ 10^6 cells/ml. H1299 cells were cultured in DMEM (Dulbecco's modified Eagle's medium; Gibco, Life Technologies) supplemented with 10% (v/v) (FCS) (Biochrom, Merck Millipore), 4 mM L-glutamine, 100 μg/ml streptomycin, and 100 units/ml penicillin.
Jurkat T-lymphocytes, primary human CD4^+ T cells and H1299 cells were pelleted at 450 ×g for 5 min, rat TMBP at 300 ×g for 8 min at room temperature and were resuspended in 1 ml of either standard JMP medium (Jurkat, H1299 and human CD4^+ T cells) or standard DMEM based medium containing 10% fetal bovine serum (FBS) (v/v) (TMBP cells). […]
10^6 Jurkat T-lymphocytes, H1299 cells, TMBP cells or 4*10^6 primary human CD4^+ T cells were added into a 10 × 10 mm quartz glass cuvette (Hellma Analytics, Germany) that was placed into a fluorescence spectrophotometer (F-2710, Hitachi, Japan). […] Fluorescence intensity was measured at an emission wavelength of 495 ± 5 nm for both excitation wavelengths.

These results are taken from publication PMC8062851, “2-Methoxyestradiol and its derivatives inhibit store-operated Ca^2+ entry in T cells: Identification of a new and potent inhibitor” (Biochimica et Biophysica Acta. Molecular Cell Research, 2021).

Consider `CCc1cc2c(cc1OS(N)(=O)=O)CC[C@@H]1[C@@H]2CC[C@]2(C)[C@@H](CC#N)CC[C@@H]12` [STX564, 2-ethyl-3-sulfamoyloxy-17β-cyanomethylestra-1,3,5(10)-triene], for which the “concentration at which TCR/CD3-evoked pro-inflammatory cytokine expression was significantly reduced” value with TMBP cells (TMBP cells + MBP, 6 h, qPCR) is not below 0.1 µM. The “concentration at which interferon-γ expression was significantly antagonized” value with TMBP cells (TMBP cells + MBP, 6 h, qPCR, STX564 vs Synta66) is not below 0.1 µM. In the assay with TMBP cells (rat effector TMBP cells, especially INF-γ expression), the “fold higher antagonist potency over Synta66, pro-inflammatory cytokine expression” value is “approx. 100 fold”. Besides, the SOCE inhibition result in the assay with SOCE in H1299 cells is recorded as “significantly inhibited”.
